Measurements published in ChEMBL document CHEMBL3044597, “Docking-based 3D-QSAR modeling of the inhibitors of IMP metallo--lactamase” (Med Chem Res, 2013).

molecular target: Beta-lactamase (Pseudomonas aeruginosa, UniProt Q79MP6); assay: Inhibition of Pseudomonas aeruginosa IMP1 metallo-beta-lactamase
Sequence (Q79MP6 whole entry): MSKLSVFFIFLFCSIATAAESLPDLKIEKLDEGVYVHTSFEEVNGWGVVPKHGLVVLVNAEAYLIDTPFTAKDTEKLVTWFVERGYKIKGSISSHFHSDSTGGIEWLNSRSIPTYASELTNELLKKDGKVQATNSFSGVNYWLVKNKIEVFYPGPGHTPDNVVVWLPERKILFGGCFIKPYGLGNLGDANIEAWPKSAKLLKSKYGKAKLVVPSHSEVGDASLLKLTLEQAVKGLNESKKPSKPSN

SMILES | IC50 [µM]
O=C(O)[C@@H](Cc1ccccc1)[C@H](Cc1ccccc1)C(=O)O | 0.0027
C[C@@H](Cc1ccc(-c2ccccc2)cc1)SC(=O)[C@@H](C)NC(=O)c1ccc2ccccc2c1 | 18
O=C(O)[C@@H](S)Cc1ccc2oc3ccccc3c2c1 | 0.25
C[C@@H](Cc1ccc(-c2ccccc2)cc1)SC(=O)[C@@H](C)NC(=O)Cc1cccnc1 | 32
C[C@@H](Cc1ccc(-c2ccccc2)cc1)SC(=O)[C@@H](C)NC(=O)Cc1ccc(N(C)C)cc1 | 55
C[C@@H](Cc1ccc(-c2ccccc2)cc1)SC(=O)[C@@H](C)NC(=O)CCC(=O)c1ccccc1 | 0.25
O=C(O)[C@H](S)Cc1ccccc1 | 0.0859
COc1ccc(C(=O)N[C@H](C)C(=O)S[C@@H](C)Cc2ccc(-c3ccccc3)cc2)cc1 | 29
C[C@@H](Cc1ccccc1)SC(=O)[C@@H](C)NC(=O)c1ccccc1 | 20
C[C@@H](Cc1ccc(-c2ccccc2)cc1)SC(=O)[C@@H](C)NC(=O)CNC(=O)c1ccccc1 | 50
C[C@@H](Cc1ccc(-c2ccccc2)cc1)SC(=O)[C@@H](C)NC(=O)/C=C/c1ccccc1 | 11
C[C@@H](Cc1ccc(-c2ccccc2)cc1)SC(=O)[C@@H](C)NC(=O)Cc1ccc(O)cc1 | 3.1
C=CCOC(=O)N[C@H](C)C(=O)S[C@@H](C)Cc1ccc2oc3ccccc3c2c1 | 2.9
C[C@@H](Cc1ccc(-c2ccccc2)cc1)SC(=O)[C@@H](C)NC(=O)c1ccccc1 | 3.6
C[C@@H](Cc1ccc(-c2ccccc2)cc1)SC(=O)[C@@H](C)NC(=O)c1cccc(N(C)C)c1 | 15
O=C(O)[C@H](S)Cc1ccc2oc3ccccc3c2c1 | 0.023
C[C@@H](Cc1ccc(-c2ccccc2)cc1)SC(=O)[C@@H](C)NC(=O)CCCC(=O)O | 91
C[C@@H](Cc1ccc(-c2ccccc2)cc1)SC(=O)[C@@H](C)NC(=O)CCc1ccccc1 | 15
O=C(S[C@H](Cc1ccc2oc3ccccc3c2c1)C(=O)O)c1ccccc1 | 0.0013
CC(C)C(=O)N[C@H](C)C(=O)S[C@@H](C)Cc1ccc(-c2ccccc2)cc1 | 9.71
CC(=O)N[C@H](C)C(=O)S[C@@H](C)Cc1ccc2oc3ccccc3c2c1 | 2
CC(=O)S[C@H](Cc1ccccc1)C(=O)O | 12
O=C(O)[C@H](S)Cc1ccc(-c2ccccc2)cc1 | 0.057
C[C@@H](c1ccccc1)[C@H](C(=O)O)[C@H](Cc1ccccc1)C(=O)O | 0.013

SMILES | IC50 [µM]
O=C(O)[C@@H](S)Cc1ccc(-c2ccccc2)cc1 | 1.2
COc1cc(OC)c(C(=O)N[C@H](C)C(=O)S[C@@H](C)Cc2ccc(-c3ccccc3)cc2)c(OC)c1 | 46
C[C@@H](Cc1ccc(-c2ccccc2)cc1)SC(=O)[C@@H](C)NC(=O)Cc1ccccc1 | 5.79
CC(C)CC(=O)N[C@H](C)C(=O)S[C@@H](C)Cc1ccc(-c2ccccc2)cc1 | 5.3
C[C@@H](Cc1ccc(-c2ccccc2)cc1)SC(=O)[C@@H](C)NC(=O)COc1ccccc1 | 1
O=C(S[C@H](Cc1ccccc1)C(=O)O)c1ccccc1 | 0.064
COc1cccc(C(=O)N[C@H](C)C(=O)S[C@@H](C)Cc2ccc(-c3ccccc3)cc2)c1 | 38
CCC(=O)N[C@H](C)C(=O)S[C@@H](C)Cc1ccc(-c2ccccc2)cc1 | 9.51
CCCCCC(=O)N[C@H](C)C(=O)S[C@@H](C)Cc1ccc(-c2ccccc2)cc1 | 13
O=C(O)[C@@H](Cc1ccc2c(c1)OCO2)[C@H](Cc1ccc2c(c1)OCO2)C(=O)O | 0.00899
C/C=C/C(=O)N[C@H](C)C(=O)S[C@@H](C)Cc1ccc(-c2ccccc2)cc1 | 33
O=C(S[C@@H](Cc1ccccc1)C(=O)O)c1ccccc1 | 2.5
C=CCOC(=O)N[C@H](C)C(=O)S[C@@H](C)Cc1ccc(-c2ccccc2)cc1 | 4.4
C[C@@H](Cc1ccc(-c2ccccc2)cc1)SC(=O)[C@@H](C)NC(=O)CSCC(=O)O | 13
C[C@@H](Cc1ccc(-c2ccccc2)cc1)SC(=O)[C@@H](C)NC(=O)Cc1cccc2ccccc12 | 12
CC(=O)S[C@H](Cc1ccc(-c2ccccc2)cc1)C(=O)O | 0.0839
C[C@@H](Cc1ccc(-c2ccccc2)cc1)SC(=O)[C@@H](C)NC(=O)Cc1ccccc1Cc1ccccc1 | 24
CCCC(=O)N[C@H](C)C(=O)S[C@@H](C)Cc1ccc(-c2ccccc2)cc1 | 9.29
O=C(O)[C@@H](Cc1ccccc1)[C@H](Cc1ccc2c(c1)OCO2)C(=O)O | 0.0037
COc1ccc(CC(=O)N[C@H](C)C(=O)S[C@@H](C)Cc2ccc(-c3ccccc3)cc2)cc1 | 12
CC(=O)N[C@H](C)C(=O)S[C@@H](C)Cc1ccc(-c2ccccc2)cc1 | 18
O=C(O)[C@H](Cc1ccccc1)[C@@H](Cc1ccccc1)C(=O)O [(2R,3R)-2,3-DIBENZYLSUCCINIC ACID] | 0.21
C[C@@H](Cc1ccc2oc3ccccc3c2c1)SC(=O)[C@@H](C)NC(=O)c1ccccc1 | 1.5
CCCCC(=O)N[C@H](C)C(=O)S[C@@H](C)Cc1ccc(-c2ccccc2)cc1 | 4.8
